{
  "source": "patent US10927350B2",
  "about": "“Methods for generating stem cell-derived beta cells and uses thereof” (President and Fellows of Harvard College, priority 2014, dated 2021)",
  "test_system": "endocrine progenitor cells directed to differentiate into SC-β cells",
  "test": "Stimulation index (glucose stimulated insulin secretion) of SC-β cells generated from endocrine progenitor cells in the presence of a JNK inhibitor",
  "format": "cell-based, human",
  "settings": "Stimulation index=[insulin@20 mM glucose]/[insulin@2 mM glucose]; Relative Stim Index=Stim Index/Stim Index of Control; versus SC-β cells generated in the absence of the JNK inhibitor; inhibitor added to Step 6 (FIG. 1, FIG. 2C)",
  "method": "Stimulation index=[insulin@20 mM glucose]/[insulin@2 mM glucose]. Relative Stim Index=Stim Index/Stim Index of Control.\nFIG. 2C is a schematic illustrating an exemplary method for generating SC-β cells by adding a JNK inhibitor to Step 6 of the exemplary protocol shown in FIG. 2B.\nThe methods of the present invention contemplate contacting cells (e.g., endocrine progenitor cells or precursors thereof) with effective amounts of one or more agents that decrease the level and/or activity of JNK. An “effective amount” of an agent (or composition containing such agent) refers to the amount sufficient to achieve a desired effect, e.g., when delivered to a cell or subject according to a selected administration form, route, and/or schedule. As will be appreciated by those of ordinary skill in this art, the absolute amount of a particular agent or composition that is effective may vary depending on such factors as the desired biological or pharmacological endpoint, the agent to be delivered, the target tissue, etc. Those of ordinary skill in the art will further understand that an “effective amount” may be contacted with cells or administered in a single dose, or the desired effect may be achieved by use of multiple doses. An effective amount of a composition may be an amount sufficient to reduce the severity of or prevent one or more symptoms or signs of a disorder (e.g., diabetes). […]",
  "data": [
    {"smiles": "O=C1c2ccccc2-c2n[nH]c3cccc1c23", "note": "[SP600125, Anthra[1,9-cd]pyrazol-6(2H)-on]", "values": [
      {"measurement": "Relative stimulation index of generated SC-β cells", "value": "greater stimulation index"}
    ]}
  ]
}
